Results published in patent US11332492B2, “CD73 inhibitors and therapeutic uses thereof” (Jiangsu Hengrui Medicine Co., Ltd., priority 2018, dated 2022).

What was measured:
[1] = system: human peripheral blood mononuclear cells (PBMCs); assay: IFNγ cytokine production in human PBMCs with AMP and CD3/CD28 antibody beads (HTRF); format: cell-based; settings: compound 10 μM, 50 μM AMP, 72 hours
Protocol: Test Example 2 Determination of Compound of the Present Invention Modulates Cellular Immune Function by IFNγ Cytokine Production
Lymphocyte medium and TexMACS medium were incubated in a water bath at 37° C. 10 mL of incubated lymphocyte medium was added to a 50 mL conical tube. The cells were quickly thawed in a 37° C. water bath and transferred to a 50 ml tube and the tube gently swirled. The cell suspension was centrifuged at 1100 rpm for 10 minutes at room temperature. The supernatant was removed, and the cell pellet gently resuspended in 10 mL of TexMACS medium. The cells were counted to make 5×10^5 cells/ml. 100 μL of 5×10^5 cells/ml of PBMCs seeds, inserted into a 96-well plate (cell density of 50,000 cells/well), and the most outer edge wells of the 96-well plate were filled with water and were not used for the test. […] Read the values of 665 nm and 620 nm on a PHERAstar FSX Multilabel Reader.
Calculated ratio=(signal at 665 nm/signal at 620 nm)×10^4, which reflected the “raw signal”. […] The concentration of IFNγ cytokine of each sample corresponding to the standard curve was calculated. […]
The production of IFNγ cytokines by the compounds of the present invention was measured by the above test. […]

[2] = molecular target: recombinant human 5′-nucleotidase (CD73) (Homo sapiens (Human), UniProt P21589); assay: Inhibition of CD73 enzyme activity in vitro (Malachite Green phosphate detection, CMP substrate); settings: 0.34 nM recombinant human CD73, 2 h pre-incubation at 37° C., 45 μM CMP; read-out: IC50 values of biochemical inhibition of CD73 enzymatic activity
Protocol: Test Example 1, Test of the Compounds of the Present Invention for their Inhibition on CD73 Enzyme Activity In Vitro
CD73 enzyme, an ecto-5′-Nucleotidase, converts extracellular nucleoside-5′-monophosphates to nucleosides, with AMP or CMP as the preferred substrate. In this assay, recombinant human CD73 expressed from a Chinese hamster ovary cell line (R&D Systems) was used to convert cytidine monophosphate (CMP) to cytidine and phosphate. Before adding substrate, CD73 enzyme was pre-incubated with compounds for 2 hours. The amount of phosphate was then measured by Malachite Green Phosphate Detection Kit. The experimental method is summarized as follows:
Compounds are first dissolved in DMSO to 10 mM as a stock solution. When determining the IC50 of the compound, prepare 3-fold serial dilutions with a highest concentration of 125 μM for a total of 12 concentration points and ensure each dilution containing equal amount of DMSO. In each well of 384-well plate, 0.34 nM of recombinant human 5′-nucleotidase (CD73) was pre-incubated at 37° C. for 2 hours with the compounds tested in assay buffer containing 20 mM HEPES buffer (pH 7.4), 137 mM NaCl, 0.001% Tween 20. The final reaction volume of the reaction in each well was 12 μL. The highest concentration of compound was 125 μM and the DMSO concentration was 1.25%. After pre-incubation, 3 μL of CMP dissolved in assay buffer was added to each reaction. The final CMP concentration was 45 μM. The reaction was incubated at 37° C. for 15 minutes. Then 3 μL of Malachite Green Reagent A was added to each reaction. Spin the plate briefly in centrifuge for 30 seconds. After incubation for additional 10 minutes at room temperature, 3 μL of malachite green Reagent B was added to each reaction. Spin the plate briefly in centrifuge for 30 seconds. After 20 minutes of incubation at room temperature, the signal was read on a TECAN reader at OD620. The reaction containing CD73 enzyme, substrate CMP and DMSO (no compound) is used as an assay positive control while the reaction containing substrate CMP and DMSO without the CD73 enzyme as an assay negative control. IC50 values were calculated by plotting the logarithm of the compound concentration and the percent inhibition using the appropriate program in GraphPad Prism.
The biochemical inhibitions of CD73 enzymatic activities by the compounds of the present invention were determined by the assay described above, and the resulting IC50 values are shown in Table 1.

recombinant human 5′-nucleotidase (CD73), sequence (P21589 27-574): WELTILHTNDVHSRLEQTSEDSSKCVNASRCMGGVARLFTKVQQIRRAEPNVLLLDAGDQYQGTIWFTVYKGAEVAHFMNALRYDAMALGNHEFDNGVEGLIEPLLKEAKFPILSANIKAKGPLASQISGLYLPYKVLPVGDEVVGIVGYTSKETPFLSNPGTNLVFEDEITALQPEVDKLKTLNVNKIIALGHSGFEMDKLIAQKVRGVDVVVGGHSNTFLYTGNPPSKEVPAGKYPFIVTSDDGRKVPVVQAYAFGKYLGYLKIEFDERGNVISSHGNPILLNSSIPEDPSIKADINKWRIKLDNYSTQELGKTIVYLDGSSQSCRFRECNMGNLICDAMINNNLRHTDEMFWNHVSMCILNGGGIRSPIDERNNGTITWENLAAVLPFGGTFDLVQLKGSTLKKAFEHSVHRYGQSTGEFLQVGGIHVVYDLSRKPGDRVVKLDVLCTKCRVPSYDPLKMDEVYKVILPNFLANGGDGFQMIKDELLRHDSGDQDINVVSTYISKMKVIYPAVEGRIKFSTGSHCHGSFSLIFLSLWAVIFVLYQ

SMILES	IC50 [2]	Response rate of IFNγ cytokines by a compound (fold) as compared to vehicle control (DMSO) [1]
O=P(O)(O)COC[C@H]1O[C@@H](n2ncc3c(N4CC5(CCCCC5)C4)nc(Cl)nc32)[C@H](O)[C@@H]1O [Example 1, ((((2R,3S,4R,5R)-5-(6-chloro-4-(2-azaspiro[3.5]nonan-2-yl)-1H-pyrazolo[3,4-d]pyrimidin-1-yl)-3,4-dihydroxytetrahydrofuran-2-yl)methoxy)methyl)phosphonic acid]	0.11 nM	4.1 folds
CC(C)OC(=O)OCOP(=O)(O)COC[C@H]1O[C@@H](n2ncc3c(N4CC5(CCc6ccccc65)C4)nc(Cl)nc32)[C@H](O)[C@@H]1O [Example 3, ((((((2R,3S,4R,5R)-5-(6-chloro-4-(2′,3′-dihydrospiro[azetidine-3,1′-inden]-1-yl)-1H-pyrazolo[3,4-d]pyrimidin-1-yl)-3,4-dihydroxytetrahydrofuran-2-yl)methoxy)methyl)(hydroxy)phosphoryl)oxy)methyl isopropyl carbonate]	2.1 nM	
O=P(O)(O)COC[C@H]1O[C@@H](n2ncc3c(N4CC5(C4)OCc4cc(Cl)ccc45)nc(Cl)nc32)[C@H](O)[C@@H]1O [Example 5, ((((2R,3S,4R,5R)-5-(6-chloro-4-(5′-chloro-3′H-spiro[azetidine-3,1′-isobenzofuran]-1-yl)-1H-pyrazolo[3,4-d]pyrimidin-1-yl)-3,4-dihydroxytetrahydrofuran-2-yl)methoxy)methyl)phosphonic acid]	0.074 nM	
O=P(O)(COC[C@H]1O[C@@H](n2ncc3c(N4CC5(CCc6ccccc65)C4)nc(Cl)nc32)[C@H](O)[C@@H]1O)Oc1ccccc1 [Example 11, phenyl hydrogen ((((2R,3S,4R,5R)-5-(6-chloro-4-(2′,3′-dihydrospiro[azetidine-3,1′-inden]-1-yl)-1H-pyrazolo[3,4-d]pyrimidin-1-yl)-3,4-dihydroxytetrahydrofuran-2-yl)methoxy)methyl)phosphonate]	0.9 nM	
O=P(COC[C@H]1O[C@@H](n2ncc3c(N4CC5(CCc6ccccc65)C4)nc(Cl)nc32)[C@H](O)[C@@H]1O)(Oc1ccccc1)Oc1ccccc1 [Example 10, diphenyl((((2R,3S,4R,5R)-5-(6-chloro-4-(2′,3′-dihydrospiro[azetidine-3,1′-inden]-1-yl)-1H-pyrazolo[3,4-d]pyrimidin-1-yl)-3,4-dihydroxytetrahydrofuran-2-yl)methoxy)methyl)phosphonate]	7.6 nM	
O=P(O)(O)COC[C@H]1O[C@@H](n2ncc3c(N4CC5(CCc6ccc(F)cc65)C4)nc(Cl)nc32)[C@H](O)[C@@H]1O [Example 6, ((((2R,3S,4R,5R)-5-(6-chloro-4-(6′-fluoro-2′,3′-dihydrospiro[azetidine-3,1′-inden]-1-yl)-1H-pyrazolo[3,4-d]pyrimidin-1-yl)-3,4-dihydroxytetrahydrofuran-2-yl)methoxy)methyl)phosphonic acid]	0.25 nM	
CC(C)OC(=O)OCOP(=O)(COC[C@H]1O[C@@H](n2ncc3c(N4CC5(CCc6ccccc65)C4)nc(Cl)nc32)[C@H](O)[C@@H]1O)OCOC(=O)OC(C)C [Example 4, ((((((2R,3S,4R,5R)-5-(6-chloro-4-(2′,3′-dihydrospiro[azetidine-3,1′-inden]-1-yl)-1H-pyrazolo[3,4-d]pyrimidin-1-yl)-3,4-dihydroxytetrahydrofuran-2-yl)methoxy)methyl)phosphoryl)bis(oxy))bis(methylene) diisopropyl decarbonate]	710 nM	

Second part, led by results:

IC50 [2]	SMILES	Response rate of IFNγ cytokines by a compound (fold) as compared to vehicle control (DMSO) [1]
300 nM	O=P(O)(O)Cc1cccc(OC[C@H]2O[C@@H](n3ncc4c(N5CC6(CCCCC6)C5)nc(Cl)nc43)[C@H](O)[C@@H]2O)c1 [Example 12, (3-(((2R,3S,4R,5R)-5-(6-chloro-4-(2-azaspiro[3.5]nonan-2-yl)-1H-pyrazolo[3,4-d]pyrimidin-1-yl)-3,4-dihydroxytetrahydrofuran-2-yl)methoxy)benzyl)phosphonic acid]	
0.013 nM	O=P(O)(O)COC[C@H]1O[C@@H](n2ncc3c(N4CC5(CCc6ccccc65)C4)nc(Cl)nc32)[C@H](O)[C@@H]1O [Example 2, ((((2R,3S,4R,5R)-5-(6-chloro-4-(2′,3′-dihydrospiro[azetidine-3,1′-inden]-1-yl)-1H-pyrazolo[3,4-d]pyrimidin-1-yl)-3,4-dihydroxytetrahydrofuran-2-yl)methoxy)methyl)phosphonic acid]	4.3 folds
0.13 nM	COc1ccc2c(c1)CCC21CN(c2nc(Cl)nc3c2cnn3[C@@H]2O[C@H](COCP(=O)(O)O)[C@@H](O)[C@H]2O)C1 [Example 7, ((((2R,3S,4R,5R)-5-(6-chloro-4-(5′-methoxy-2′,3′-dihydrospiro[azetidine-3,1′-inden]-1-yl)-1H-pyrazolo[3,4-d]pyrimidin-1-yl)-3,4-dihydroxytetrahydrofuran-2-yl)methoxy)methyl)phosphonic acid]	
8.5 nM	CC(OC(=O)C(C)(C)C)OP(=O)(O)COC[C@H]1O[C@@H](n2ncc3c(N4CC5(CCc6ccccc65)C4)nc(Cl)nc32)[C@H](O)[C@@H]1O (stereo partly drawn) [Example 9, 1-((((((2R,3S,4R,5R)-5-(6-chloro-4-(2′,3′-dihydrospiro[azetidine-3,1′-inden]-1-yl)-1H-pyrazolo[3,4-d]pyrimidin-1-yl)-3,4-dihydroxytetrahydrofuran-2-yl)methoxy)methyl)(hydroxy)phosphoryl)oxy)ethyl pivalate]	
